In ChEMBL document CHEMBL1201862, “PubChem BioAssay data set” (2004):
Values joined by “and” are separate entries in the source; they are usually repeats but may differ in a detail not shown here. Identical values can stand only once.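 Exposure lasted 48 hours, with cells grown in 96-well plates and compounds tested at five concentrations. GI50 marks 50% less growth.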 Active and inactive are the calls of the source. Rule as the data show it: active = GI50 up to about 1.1 µM and inactive = higher.

Legend:
Assay in all cases: NCI anticancer screen, dose series, 48 h
MCF7 = tested on: MCF7
CCRF-CEM = tested on: CCRF-CEM
A498 = tested on: A498
NCI/ADR-RES = tested on: NCI/ADR-RES
NCI-H460 = tested on: NCI-H460
SR = tested on: SR
SNB-78 = tested on: SNB-78
DMS-273 = tested on: DMS-273
TK-10 = tested on: TK-10
SW-620 = tested on: SW-620
RXF 631 = tested on: RXF 631
COLO 205 = tested on: COLO 205
SNB-75 = tested on: SNB-75
XF498 = tested on: XF498
DMS-114 = tested on: DMS-114
LXFL 529 = tested on: LXFL 529
M19-MEL = tested on: M19-MEL
SK-MEL-2 = tested on: SK-MEL-2
HOP-18 = tested on: HOP-18
UACC-257 = tested on: UACC-257

SMILES	GI50 (MCF7)	GI50 (CCRF-CEM)	GI50 (A498)	GI50 (NCI/ADR-RES)	GI50 (NCI-H460)	GI50 (SR)	GI50 (SNB-78)	GI50 (DMS-273)	GI50 (TK-10)	GI50 (SW-620)	GI50 (RXF 631)	GI50 (COLO 205)	GI50 (SNB-75)	GI50 (XF498)	GI50 (DMS-114)	GI50 (LXFL 529)	GI50 (M19-MEL)	GI50 (SK-MEL-2)	GI50 (HOP-18)	GI50 (UACC-257)
CC#CC#C/C=C1\C=CC2(OC=CC2OC(C)=O)O1 (stereo not drawn)	14.4 µM (inactive)	8.41 µM (inactive) and 14 µM (inactive)	47.6 µM (inactive) and 80.9 µM (inactive)	28.6 µM (inactive)	32.3 µM (inactive) and 21.7 µM (inactive)	17.6 µM (inactive) and 15.3 µM (inactive)	10.4 µM (inactive)	20.1 µM (inactive)	34 µM (inactive) and 28.1 µM (inactive)	24.8 µM (inactive) and 18.8 µM (inactive)	14.5 µM (inactive)	15 µM (inactive) and 16.4 µM (inactive)	38.3 µM (inactive) and 24.9 µM (inactive)	21.3 µM (inactive)	18.2 µM (inactive)	16.3 µM (inactive)	–	–	–	–
Cc1cc(OCC(O)CO)ccc1Cl (stereo not drawn)	–	> 100 µM (inactive)	> 100 µM (inactive)	–	> 100 µM (inactive)	60.1 µM (inactive)	–	> 100 µM (inactive)	> 100 µM (inactive)	> 100 µM (inactive)	> 100 µM (inactive)	> 100 µM (inactive)	87.3 µM (inactive)	–	> 100 µM (inactive)	> 100 µM (inactive)	> 100 µM (inactive)	> 100 µM (inactive)	> 100 µM (inactive)	> 100 µM (inactive)
COc1ccc(-c2cc(O)c3cc(C)cnc3n2)cc1	2.72 µM (inactive)	3.21 µM (inactive)	7.29 µM (inactive)	3.73 µM (inactive)	–	–	–	–	2.86 µM (inactive)	3.24 µM (inactive)	–	3.22 µM (inactive)	–	–	–	–	–	3.5 µM (inactive)	–	5.64 µM (inactive)
CC/C(CC(=O)CCC(=O)Nc1ccc(C)c(C)c1)=N\NC(=O)c1cc2ccccc2cc1O	–	5.2 µM (inactive)	–	–	23.6 µM (inactive)	18 µM (inactive)	48.5 µM (inactive)	–	–	30.2 µM (inactive)	69.5 µM (inactive)	37 µM (inactive)	–	–	32.9 µM (inactive)	21.9 µM (inactive)	28.8 µM (inactive)	31 µM (inactive)	15.2 µM (inactive)	45.2 µM (inactive)
COC(=N)C(C)C	–	> 100 µM (inactive)	–	–	> 100 µM (inactive)	> 100 µM (inactive)	> 100 µM (inactive)	> 100 µM (inactive)	> 100 µM (inactive)	> 100 µM (inactive)	–	> 100 µM (inactive)	> 100 µM (inactive)	–	> 100 µM (inactive)	> 100 µM (inactive)	> 100 µM (inactive)	–	–	> 100 µM (inactive)
CC1=CC2=C(C=O)C(=O)[C@](C)(O)[C@@H](O)C2=CO1	39.4 µM (inactive)	21.5 µM (inactive)	24.3 µM (inactive)	> 53.8 µM (inactive)	29.9 µM (inactive)	–	38.5 µM (inactive)	28.9 µM (inactive)	–	29.4 µM (inactive)	–	28.1 µM (inactive)	13.8 µM (inactive)	> 54.3 µM (inactive)	–	–	22.4 µM (inactive)	24.2 µM (inactive)	> 54.5 µM (inactive)	33.2 µM (inactive)
O=C1C=C2SC3C[C@@]24CC1(O)[N+]1=c2c4c(c(O)c4c2=C(C=N4)CC1)N3	0.278 µM (active)	0.321 µM (active)	1.88 µM (inactive)	0.887 µM (active)	2.07 µM (inactive)	–	1.61 µM (inactive)	1.42 µM (inactive)	–	0.33 µM (active)	–	0.176 µM (active)	1.83 µM (inactive)	1.85 µM (inactive)	0.219 µM (active)	–	0.285 µM (active)	1.44 µM (inactive)	2.43 µM (inactive)	1.16 µM (inactive)
C=C1CCCC2[C@](C)(CC3=C(O)C(=O)C=C(OC)C3=O)[C@@H](C)CC[C@]12C (stereo partly drawn)	–	2.36 µM (inactive)	6.27 µM (inactive)	–	2.8 µM (inactive)	–	–	–	7.16 µM (inactive)	3.01 µM (inactive)	9.62 µM (inactive)	7.35 µM (inactive)	3.94 µM (inactive)	16.7 µM (inactive)	1.99 µM (inactive)	6.04 µM (inactive)	1.81 µM (inactive)	2.45 µM (inactive)	1.7 µM (inactive)	3.3 µM (inactive)
